Laboratory results taken from patent US6777405B2, “Detection and treatment of duplex polynucleotide damage” (California Institute of Technology, priority 1997, dated 2004).

Tests used:
[1] = tested on: DNA duplexes having a single base pair mismatch (SEQ ID NO:1/SEQ ID NO:2); assay: Photocleavage of 17-mer DNA duplexes with a single base pair mismatch (365 nm, PAGE); assay type: biochemical
Description: A set of DNA duplexes was prepared having the following sequence:
3′-[…]-5′(SEQ ID NO:1)
5′-[…]-3′(SEQ ID NO:2),
where X and Y were varied to provide A-T, G-C, and the following mismatches: C-C, C-A, T-T, A-A, T-C, T-G, G-A, and G-G. All oligonucleotides were prepared using standard phosphoramidite chemistry, and were purified by reverse phase HPLC. The oligonucleotides were 5′ end-labeled with γ-^32P ATP (Dupont-NEN) and T4 polynucleotide kinase (New England Biolabs).
Duplexes (10 μM) were incubated with Δ or Λ [Rh(bpy)2(chrysi)]^3+(1 μM in 50 mM Tris, 20 mM NaOAc, 18 mM NaCl, pH 7.0) for 11 minutes, then irradiated for 13 min at 365 nm using an Oriel HgXe arc lamp. The products were analyzed by PAGE (20%, denaturing), imaged using a Molecular Dynamics Phosphorimager. The lanes labeled A+G and C+T are standard Maxam-Gilbert sequencing reactions: the remaining columns show cleavage (or lack of cleavage) for each tested mismatch with each enantiomer. […] Here, cleavage occurred to the 3′ side of the mismatch site. […] Unlike the other recognized mismatches, the cleavage 3′ to C-A results in two products having different gel mobility, possibly the result of chemically different polymer termini. The cleavage of A-A was also distinctive.

[2] = tested on: mismatch-sequence context combinations in DNA duplexes; assay: Photocleavage with systematically changed bases 5′ and 3′ of the mismatch site; assay type: biochemical; settings: flanking bases 5′ and 3′ of the mismatch systematically changed
[3] = tested on: hairpin DNA oligonucleotide (SEQ ID NO:3) having a single C-C mismatch; assay: Photocleavage titration on hairpin DNA with single C-C mismatch; settings: 313 or 365 nm, Rh complex at 0.10× DNA concentration, single binding site model fit
Description: A hairpin DNA oligonucleotide was synthesized with the sequence:
5′-[…]-3′ (SEQ ID NO:3), having a single C-C mismatch. The hairpin was photocleaved as described in Example 2 above with Δ[Rh(bpy)2(chrysi)]^3+ at either 313 nm or 365 nm for 7.5 to 15 min. Hairpin DNA concentration was varied from 3×10^−10 M to 1×10^−4 M, with the Rh complex used at 0.10× the DNA concentration. The cleavage products were eluted through 20% denaturing polyacrylamide gels, and analyzed using a Molecular Dynamics Phosphorimager and ImageQuant software. Cleavage was observed 3′ to the C-C mismatch on both sides of the hairpin: only the cleavage band closest to the end label was quantitated. Data from multiple trials was normalized (open circles) and fit to a standard single binding site binding model (solid line).
(§1) The thermodynamic binding constant was determined to be 8.4 (±1.0)×10^5 M^−1. Similar DNA photocleavage titrations at other mismatch sites have measured the affinity of Δ [Rh(bpy)2(chrysi)]^3+ between 1×10^7 and 3×10^5 M^−1. To examine the level of selectivity the average binding constant of Δ[Rh(bpy)2(chrysi)]^3+ to B-form DNA was also determined. Photocleavage on a 33mer correctly matched hairpin and competitive titration with unlabeled 25mer B-DNA yielded a value of 4 (±2)×10^4 M^−1 for the average non-specific binding affinity.

[4] = tested on: B-form DNA (33mer correctly matched hairpin, 25mer B-DNA); assay: Photocleavage on correctly matched hairpin and competitive titration with unlabeled B-DNA; assay type: binding
Description: as §1

[5] = duplex 10 μM, complex 1 μM, 13 min at 365 nm
[6] = duplex 10 μM, complex 1 μM, 13 min at 365 nm, compared with C-C

Substance | photocleavage at A-A mismatch, base 3′ to the site [1, 5] | photocleavage at the A-A site itself [1, 5] | photocleavage at C-A mismatch ([1]; duplex 10 μM, complex 1 μM, 13 min at 365 nm, at the mismatched C and the base 3′ to the mismatch site) | photocleavage at T-C mismatch [1, 6] | photocleavage at T-T mismatch [1, 6] | photocleavage at C-C mismatch ([1]; duplex 10 μM, complex 1 μM, pH 7.0, irradiated 13 min at 365 nm, cleavage to the 3′ side of the mismatch site) | mismatch-sequence context combinations at which photocleavage was observed (count) [2] | mismatch-sequence context combinations at which photocleavage was observed (percent) [2] | thermodynamic binding constant [3] | average non-specific binding affinity [4] | mismatch pairs cleaved among all tested pairs ([1]; A-T, G-C, C-C, C-A, T-T, A-A, T-C, T-G, G-A, G-G tested) | photocleavage at A-A mismatch relative to the other enantiomer [1, 5]
Δ-[Rh(bpy)2(chrysi)]Cl3 [Δ[Rh(bpy)2(chrysi)]^3+] | strong cleavage | a small amount of cleavage | Strong cutting | less intense cleavage | less intense cleavage | strongest cleavage intensity | 83 of 104 | 80% | 8.4 (±1.0)×10^5 M^−1 | 4 (±2)×10^4 M^−1 |  | 
Λ-[Rh(bpy)2(chrysi)]Cl3 [Λ enantiomer] |  |  |  |  |  |  |  |  |  |  | The A-A mismatch is the only pair cleaved | weaker cleavage
